Data taken from patent US20110218190A1, “THERAPEUTIC USES OF AMPA RECEPTOR MODULATORS FOR TREATMENT OF MOTOR DYSFUNCTION” (THE REGENTS OF THE UNIVERSITY OF CALIFORNIA, priority 2008, published 2011).

Legend:
[1] = system: hypoglossal (XII) nerve discharge, neonatal rat medullary slice preparation; assay: Integrated hypoglossal (XII) nerve recordings in the in vitro neonatal rat medullary slice preparation; settings: for ∫XII nerve discharge amplitude: longer-term (>2 hours) bath application; for long-lasting potentiation of ∫XII nerve amplitude: 1-12 hours after
Description: (§1) Experiments were performed on medullary slice preparations from 0-4 day-old neonatal rats that retain functional respiratory networks. Details of the preparation have been previously described. See Funk et al. (1993) J Neurophysiol 70:1497-1515. Briefly, neonatal rats were anesthetized with isoflurane, decerebrated, and the neuraxis isolated by dissection in artificial cerebrospinal fluid (ACSF) [(in mM) 128 NaCl, 3.0 KCl, 1.5 CaCl2, 1.0 mgSO4, 21 NaHCO3, 0.5 Na2HPO4, and 30 D-glucose] equilibrated with 95% 02-5% CO2 at 27-28° C. The neuraxis was sectioned with a vibratome in the transverse plane starting from the rostral medulla to within 150 μm nucleus ambiguous (Smith, J. C. et al., (1991) Science 254(5032):726-729. A single, 700 μm thick transverse slice was then cut, transferred to a 1.5 ml recording chamber and held in place by stainless steel harp. The slice was continuously superfused (≧3 ml/min) by ACSF with extracellular K^+ concentration raised to 9 mM to maintain rhythmic output.
Respiratory motor output was recorded from cut ends of XII nerve roots rectified, filtered and integrated. Peak amplitude was obtained from signals of XII nerve discharge. The activity in individual XII motoneurons was measured via whole-cell voltage-clamp techniques.
Cyclothiazide, CX546, and aniracetam were introduced by bath application to determine the effects of cyclothiazide, CX546, and aniracetam on respiratory activity. Stable respiratory activity was recorded for at least 30 minutes preceding drug application. After removal of the drug, recordings continued for over 12 hours.

[2] = system: snoring; assay: Treatment of a patient having snoring; format: in vivo; settings: about 0.1 to 100 mg/kg body weight
Description: A patient is diagnosed as having snoring. This diagnosis is confirmed by the presence of snoring sounds made by the patient during sleep or conditions associated with snoring.
The patient is administered a pharmaceutical formulation of an AMPA receptor modulator. The AMPA receptor modulator is administered to the patient intravenously or orally at a dosage of about 0.1 to 100 mg AMPA receptor modulator/kg body weight as determined by the attending physician. The patient is monitored for reduction or inhibition of snoring and associated symptoms.
The patient is administered a pharmaceutical formulation of an ampakine. The ampakine is administered to the patient intravenously or orally at a dosage of about 0.1 to 100 mg ampakine/kg body weight as determined by the attending physician. The patient is monitored for reduction or inhibition of snoring and associated symptoms.
The patient is administered a pharmaceutical formulation of CX546. CX546 is administered to the patient intravenously or orally at a dosage of about 0.1 to 100 mg CX546/kg body weight as determined by the attending physician. The patient is monitored for reduction or inhibition of snoring and associated symptoms.
The patient is administered a pharmaceutical formulation of aniracetam. Aniracetam is administered to the patient intravenously or orally at a dosage of about 0.1 to 100 mg aniracetam/kg body weight as determined by the attending physician. The patient is monitored for reduction or inhibition of snoring and associated symptoms.
The patient is administered a pharmaceutical formulation of benzothiadiazide. Benzothiadiazide is administered to the patient intravenously or orally at a dosage of about 0.1 to 100 mg benzothiadiazide/kg body weight as determined by the attending physician. The patient is monitored for reduction or inhibition of snoring and associated symptoms.
The patient is administered a pharmaceutical formulation of cyclothiazide. Cyclothiazide is administered to the patient intravenously at a dosage of about 0.1 to 100 mg cyclothiazide/kg body weight as determined by the attending physician. […]

[3] = system: genioglossus (GG) muscle activity in anesthetized freely breathing rats; assay: Genioglossus EMG and respiratory rate in anesthetized freely breathing rats; format: in vivo, Sprague-Dawley rats
Description: Anesthetized freely breathing rats provide a live animal model for determining effects of AMPA receptor modulators on genioglossus (GG) muscle activity.
Adult Sprague-Dawley rats (˜300 g) were anaesthetized with ketamine (100 mg kg^−1) and xylazine (10 mg kg^−1) injected intraperitoneally. 1-1.5 vol % isoflurane in O2 was inhaled during the experimental stage to provide for stable recordings and continued anesthesia. To measure GG electromyographic activity (EMG), stainless steel wire electrodes were sutured into the muscle. The raw GG EMG signal was rectified filtered and integrated.
Respiratory frequency and tidal volume were measured via pressure transducer attached to the rostral end of a polyethylene cannula that was inserted into the trachea of the anesthetized rat. The animal was freely breathing without the use of any ventilator or other method of respiratory support. These methods were taken in part from those reported in Tan, W., et al. (2008) Nat. Neurosci. 11(5):538-40 and Janczewski, W. A. and Feldman, J. L. (2006) J. Physiol. 570(Pt 2):407-20, incorporated by reference in their entirety.

[4] = system: obstructive sleep apnea; assay: Treatment of a patient having obstructive sleep apnea; format: in vivo; settings: about 0.1 to 100 mg/kg body weight
Excerpt: A patient is diagnosed as having obstructive sleep apnea. This diagnosis is confirmed by the presence of obstructive sleep apnea symptoms, including daytime sleepiness, unintentional sleep episodes, unrefreshing sleep, fatigue, or insomnia; awakening with breath holding, gasping, or choking; reports by a bed partner of loud snoring, breathing interruptions, or both in the patient's sleep; sleep study monitoring that documents >5 episodes of hypopnea and apnea per hour. The patient is administered a pharmaceutical formulation of benzothiadiazide. Benzothiadiazide is administered to the patient orally or intravenously at a dosage of about 0.1 to 100 mg benzothiadiazide/kg body weight as determined by the attending physician. The patient is monitored for reduction or inhibition of obstructive sleep apnea and associated symptoms. […] Cyclothiazide is administered to the patient intravenously at a dosage of about 0.1 to 100 mg cyclothiazide/kg body weight as determined by the attending physician. The patient is monitored for reduction or inhibition of obstructive sleep apnea and associated symptoms. […] Aniracetam is administered to the patient intravenously at a dosage of about 0.1 to 100 mg aniracetam/kg body weight as determined by the attending physician. The patient is monitored for reduction or inhibition of obstructive sleep apnea and associated symptoms.

[5] = system: XII motoneurons; assay: Whole-cell voltage-clamp of XII motoneurons in the medullary slice; format: cell-based, rat; settings: 90 μM for 15 minutes
Description: as §1
XII motoneurons were selected according to a hierarchy of criteria. Selection criteria for respiratory motoneurons are described by Funk et al. (1993) J Neurophysiol 70:1497-1515. […]
Respiratory motor output was recorded from cut ends of XII nerve roots rectified, filtered and integrated. […] The activity in individual XII motoneurons was measured via whole-cell voltage-clamp techniques.

[6] = short-duration (1 hour) application, 90 μM, FIG. 2
[7] = injection into XII motor nucleus (1 μL, 25 mM), 30 minutes post-injection, FIG. 7
[8] = local application to the IVth ventricle, FIG. 8A
[9] = micropipette injection into hypoglossal (XII) motor nucleus, 8 minutes after, FIG. 6

O=C(c1ccc2c(c1)OCCO2)N1CCCCC1 [CX546]
effect on respiratory rate (frequency) in slice ([1]; 1-hour bath application, 90 μM): increase in ∫XII nerve discharge and respiration rate that subsides over time with drug removal | effect on ∫XII nerve discharge ([1]; 1-hour bath application, 90 μM, FIG. 1B): induces an increase in ∫XII nerve discharge and respiration rate that subsides over time with drug removal | ∫XII nerve discharge amplitude ([1]; 20 μM, FIG. 5A): induces a persistent potentiation of ∫XII nerve discharge amplitude | long-lasting potentiation of ∫XII nerve amplitude [1, 6]: but not CX546 causes long-lasting potentiation | snoring [2]: reduces snoring | average increase of ∫GG activity compared to control ([3]; intravenous injection into femoral vein, 130 μg/kg, FIG. 9A): 15% | respiratory rate ([3]; intravenous injection, 130 μg/kg, FIG. 9B): no long term changes in respiratory rate | duration genioglossus muscle activity remained elevated ([3]; intravenous injection, 130 μg/kg, no diminution of amplitude): more than 2 hours

COc1ccc(C(=O)N2CCCC2=O)cc1 [aniracetam]
∫XII nerve discharge amplitude ([1]; 700 μM, FIG. 5B): induces a persistent potentiation of ∫XII nerve discharge amplitude | snoring [2]: reduces snoring | symptoms of obstructive sleep apnea [4]: reduces the symptoms of obstructive sleep apnea

NS(=O)(=O)c1cc2c(cc1Cl)NC(C1CC3C=CC1C3)NS2(=O)=O (centres unmarked) [cyclothiazide]
effect on respiratory rate (frequency) in slice ([1]; 1-hour bath application, 90 μM): minor effects on respiratory rate (frequency) | potentiation of hypoglossal (∫XII) nerve discharge amplitude ([1]; 1-hour bath application, 90 μM, FIG. 1A): 2 fold | dose-response of normalized ∫XII nerve amplitude ([1]; 1 hour following a 1 hour application of 3, 9, 30, or 90 μM, FIG. 3): ∫XII nerve amplitude increases as a function of cyclothiazide concentration | persistence of potentiation of ∫XII nerve discharge amplitude ([1]; after 1-hour bath application, 90 μM, drug removed): > 12 h | long-lasting potentiation of ∫XII nerve amplitude [1, 6]: causes long-lasting potentiation of ∫XII nerve amplitude | increase of ∫XII nerve output ([1]; short-duration (1 hour) application, 90 μM, group data 1-12 hours after, FIG. 2): 200-300% | snoring [2]: reduces snoring | XII motoneuron drive currents ([5]; 1 hour post-treatment, FIG. 4A): potentiates endogenously generated XII motoneuron drive currents | XII motoneuron charge transfer and ∫XII nerve peak amplitude ([5]; control vs 1 hour post-treatment, FIG. 4B): induces XII motoneuron charge transfer and increase of ∫XII nerve amplitude | symptoms of obstructive sleep apnea [4]: reduces the symptoms of obstructive sleep apnea | average increase of ∫GG activity relative to control [3, 7]: 300% | peak increase of ∫GG activity relative to control [3, 7]: 600% | average increase of ∫GG activity compared to control [3, 8]: 50% | peak increase of ∫GG activity compared to control [3, 8]: 150% | respiratory rate ([3]; local application to the IVth ventricle, FIG. 8B): without affecting respiratory rate | duration of elevation of ∫GG activity ([3]; local application to the IVth ventricle, until the end of the experiment): ~90 min | respiratory frequency [3, 9]: does not affect respiratory frequency | ∫GG activity [3, 9]: induces an increase in ∫GG activity
